Non-standard residues stand in square brackets, D forms with d. Residues, ends and D or L forms follow the SMILES beside them. *: point of attachment. Octanoyl = CCCCCCCC(=O)*
Legend:
E. coli BL21(DE3) = assay: Cell-based assay with ClbP with LCMS, ClbP negative strain; details: 10 μM compound, 37° C., 20 h
Method: (§1) This example is representative of the methods described in Example 97. ClbP was tested for its ability to activate compounds. […] Each of these three strains was struck out onto an appropriate solid media such as LB agar or BHI agar. The bacteria were then grown aerobically overnight at 37° C.
(§2) A single colony was isolated from the plate and inoculated into 10 mL LB. The liquid cultures were grown overnight aerobically at 37° C. with rocking on a nutator.
(§3) The saturated E. coli cultures were transferred into a biosafety cabinet. 5 μL of each culture was inoculated into fresh LB broth (200 μL total, 1:40 (v/v) dilution of the overnight culture), and the tested compound was added to a final concentration of 10 μM. To establish the native stability of the compound in media alone, the compound was also added to uninoculated media at a final concentration of 10 μM. Each compound was tested in duplicate with each strain or the media-alone incubation. The plate was sealed and incubated aerobically on a nutator at 37° C. for 20 h.
(§4) After 20 h, the reactions were stopped by addition of 200 μL acetonitrile. The contents of each well were mixed, and then the plate was centrifuged (4,000 rpm, 10 min). The plate was diluted serially to a final dilution of 1:100 first with Acetonitrile (10× dilution) and then with (4:1) Mobile Phase A-20 mM ammonium formate+water:Mobile Phase B-Isopropanol:Methanol:Water (4:4:2)+20 mM ammonium formate (10× dilution).
(§5) The amount of each remaining parent compound in each incubation was quantified by LC-MS analysis, with multiple-reaction monitoring targeting transitions specific to each parent compound.
(§6) The amount of compound present in the media-alone condition was normalized to 100%. The amount of parent compound present in the reaction with the ClbP-encoding E. coli (E. coli CFT073 ATCC 700928 and/or E. coli Nissle 1917) was compared to the amount present in the media-alone and expressed as a percent. Likewise, the amount of parent compound present in the reaction with the negative control E. coli BL21(DE3) was compared to the amount present in the media-alone and expressed as a percent.
(§7) In an ideal case, the amount of residual starting material in the reaction(s) with ClbP-encoding E. coli was <25% of the amount in the E. coli BL21(DE3) and media-alone conditions. In an acceptable case, the amount of residual starting material in the reaction(s) with ClbP-encoding E. coli was 25-75% of the amount in the E. coli BL21(DE3) and media-alone conditions. In a non-preferred case, the amount of residual starting material in the reaction(s) with ClbP-encoding E. coli was >75% of the amount in the E. coli BL21(DE3) and media-alone conditions.

[1] = tested on: E. coli CFT073 ATCC 700928 and/or E. coli Nissle 1917; assay: Cell-based assay with ClbP with LCMS, ClbP positive strain; details: for % Remaining in ClbP Positve Relative to Media-Only: ClbP-encoding E. coli, 10 μM compound, 37° C., 20 h; for Difference between the ClbP Positive and ClbP Negative release profiles: conclusion from Table 4
Method: as §1, §2, §3, §4, §5, §6, §7

SMILES	% Remaining in ClbP Negative Relative to Media-Only (E. coli BL21(DE3))	% Remaining in ClbP Positve Relative to Media-Only [1]	Difference between the ClbP Positive and ClbP Negative release profiles [1]
CCCCCCCCCCCCCC(=O)N[C@H](CC(N)=O)C(=O)N[C@@H](C)CCC(=O)Oc1ccc2nc3c(c(CC)c2c1)Cn1c-3cc2c(c1=O)COC(=O)[C@]2(O)CC [Example 24, (S)-4,11-diethyl-4-hydroxy-3,14-dioxo-3,4,12,14-tetrahydro-1H-pyrano[3′,4′:6,7]indolizino[1,2-b]quinolin-9-yl (S)-4-((R)-4-amino-4-oxo-2-tetradecanamidobutanamido)pentanoate]	− (>75% compound remaining in the 20 μM WT ClbP reaction relative to the no-enzyme control)	+ (between 25-75% compound remaining in the 20 μM WT ClbP reaction relative to the no-enzyme control)	
CCCCCCCC(=O)N[C@H](CC(N)=O)C(=O)NCCC(C)(C)C(=O)Oc1ccc2c(C)cc(=O)oc2c1 [Example 72A, 4-methyl-2-oxo-2H-chromen-7-yl (R)-4-(4-amino-2-octanamido-4-oxobutanamido)-2,2-dimethylbutanoate]	+ (between 25-75% compound remaining in the 20 μM WT ClbP reaction relative to the no-enzyme control)	+ (between 25-75% compound remaining in the 20 μM WT ClbP reaction relative to the no-enzyme control)	
CCCCCCCCCCCCCC(=O)N[C@H](CC(N)=O)C(=O)NCCN(C)C(=O)Oc1ccc(Br)cc1 [Example 31, 4-bromophenyl (R)-(2-(4-amino-4-oxo-2-tetradecanamidobutanamido)ethyl)(methyl)carbamate]	− (>75% compound remaining in the 20 μM WT ClbP reaction relative to the no-enzyme control)	− (>75% compound remaining in the 20 μM WT ClbP reaction relative to the no-enzyme control)	
CCCC(=O)N[C@H](CC(N)=O)C(=O)N[C@@H](C)CCC(=O)Oc1ccc2nc3c(c(CC)c2c1)Cn1c-3cc2c(c1=O)COC(=O)[C@]2(O)CC [Example 58, (S)-4,11-diethyl-4-hydroxy-3,14-dioxo-3,4,12,14-tetrahydro-1H-pyrano[3′,4′:6,7]indolizino[1,2-b]quinolin-9-yl (S)-4-((R)-4-amino-2-butyramido-4-oxobutanamido)pentanoate]	+ (between 25-75% compound remaining in the 20 μM WT ClbP reaction relative to the no-enzyme control)	++ (<25% compound remaining in the 20 μM WT ClbP reaction relative to the control)	
CCCCCCCCCCCCCC(=O)N[C@H](CC(N)=O)C(=O)N[C@@H](C)CNC(=O)OC [Example 23, Methyl ((S)-2-((R)-4-amino-4-oxo-2-tetradecanamidobutanamido)propyl)carbamate]	− (>75% compound remaining in the 20 μM WT ClbP reaction relative to the no-enzyme control)	+ (between 25-75% compound remaining in the 20 μM WT ClbP reaction relative to the no-enzyme control)	
CCCCCCCC(=O)N[C@H](CC(N)=O)C(=O)NCCC(C)(C)C(=O)Oc1ccc2nc3c(c(CC)c2c1)Cn1c-3cc2c(c1=O)COC(=O)[C@]2(O)CC [Example 40, (S)-4,11-diethyl-4-hydroxy-3,14-dioxo-3,4,12,14-tetrahydro-1H-pyrano[3′,4′:6,7]indolizino[1,2-b]quinolin-9-yl 4-((R)-4-amino-2-octanamido-4-oxobutanamido)-2,2-dimethylbutanoate]	− (>75% compound remaining in the 20 μM WT ClbP reaction relative to the no-enzyme control)	+ (between 25-75% compound remaining in the 20 μM WT ClbP reaction relative to the no-enzyme control)	
CCCCCCCC(=O)N[C@H](Cc1c[nH]cn1)C(=O)N[C@@H](C)C(=O)OC [Example 54, Methyl octanoyl-D-histidyl-L-alaninate] (Octanoyl-[dH]-Ala-OMe)	+ (between 25-75% compound remaining in the 20 μM WT ClbP reaction relative to the no-enzyme control)	+ (between 25-75% compound remaining in the 20 μM WT ClbP reaction relative to the no-enzyme control)	
CCCCCCNC(=O)N[C@H](CC(N)=O)C(=O)N[C@@H](C)C(=O)OC [Example 53, Methyl (hexylcarbamoyl)-D-asparaginyl-L-alaninate]	− (>75% compound remaining in the 20 μM WT ClbP reaction relative to the no-enzyme control)	++ (<25% compound remaining in the 20 μM WT ClbP reaction relative to the control)	particularly favorable difference
CCCCCCCCCCCCCC(=O)N[C@H](CC(N)=O)C(=O)NCCN(C)C(=O)OC [Example 30, Methyl (R)-(2-(4-amino-4-oxo-2-tetradecanamidobutanamido)ethyl)(methyl)carbamate]	− (>75% compound remaining in the 20 μM WT ClbP reaction relative to the no-enzyme control)	+ (between 25-75% compound remaining in the 20 μM WT ClbP reaction relative to the no-enzyme control)	
CCCCCCCC(=O)N[C@H](CC(N)=O)C(=O)NCCNC(=O)OC [Example 46, Methyl (R)-(2-(4-amino-2-octanamido-4-oxobutanamido)ethyl)carbamate]	− (>75% compound remaining in the 20 μM WT ClbP reaction relative to the no-enzyme control)	++ (<25% compound remaining in the 20 μM WT ClbP reaction relative to the control)	particularly favorable difference
CCCCCCCC(=O)N[C@H](CC(N)=O)C(=O)N[C@@H](C)CNC(=O)Oc1ccc(Br)cc1 [Example 48, 4-bromophenyl ((S)-2-((R)-4-amino-2-octanamido-4-oxobutanamido)propyl)carbamate]	+ (between 25-75% compound remaining in the 20 μM WT ClbP reaction relative to the no-enzyme control)	+ (between 25-75% compound remaining in the 20 μM WT ClbP reaction relative to the no-enzyme control)	
CCCCCCCC(=O)N[C@H](CC(N)=O)C(=O)Nc1ccc(COC)cc1 [Example 44, (R)—N1-(4-(methoxymethyl)phenyl)-2-octanamidosuccinamide]	− (>75% compound remaining in the 20 μM WT ClbP reaction relative to the no-enzyme control)	− (>75% compound remaining in the 20 μM WT ClbP reaction relative to the no-enzyme control)	
